From the NIST ThermoML archive (doi:10.1021/je800356x)

Test: molar heat capacity at constant pressure
Details: 101.33 kPa, Liquid, Small sample (50 mg) DSC

OCCCCCCCCCO [1,9-nonanediol]
Details | molar heat capacity at constant pressure [J/K/mol]
318.65 K | 389.02
320.15 K | 391.15
321.65 K | 393.27
323.15 K | 395.39
324.65 K | 397.51
326.15 K | 399.62
327.65 K | 401.73
329.15 K | 403.84
330.65 K | 405.94
332.15 K | 408.03
333.65 K | 410.12
335.15 K | 412.21
336.65 K | 414.3
338.15 K | 416.38
339.65 K | 418.45
341.15 K | 420.52
342.65 K | 422.59
344.15 K | 424.66
345.65 K | 426.72
347.15 K | 428.77
348.65 K | 430.82
350.15 K | 432.87
351.65 K | 434.92
353.15 K | 436.95

OCCCCCCCO [1,7-heptanediol]
Details | molar heat capacity at constant pressure [J/K/mol]
293.15 K | 292.06
294.65 K | 293.4
296.15 K | 294.75
297.65 K | 296.11
299.15 K | 297.48
300.65 K | 298.87
302.15 K | 300.26
303.65 K | 301.67
305.15 K | 303.09
306.65 K | 304.51
308.15 K | 305.95
309.65 K | 307.41
311.15 K | 308.87
312.65 K | 310.34
314.15 K | 311.83
315.65 K | 313.33
317.15 K | 314.83
318.65 K | 316.35
320.15 K | 317.88
321.65 K | 319.43
323.15 K | 320.98
324.65 K | 322.54
326.15 K | 324.12
327.65 K | 325.71
329.15 K | 327.31
330.65 K | 328
332.15 K | 330.54
333.65 K | 332.17
335.15 K | 333.81
336.65 K | 335.47
338.15 K | 337.13
339.65 K | 338.81
341.15 K | 340.5
342.65 K | 342.2
344.15 K | 343.91
345.65 K | 345.63
347.15 K | 347.37
348.65 K | 349.11
350.15 K | 350.87
351.65 K | 352.64
353.15 K | 354.42

OCCCCCCCCO [1,8-octanediol]
Details | molar heat capacity at constant pressure [J/K/mol]
333.65 K | 371.35
335.15 K | 373.24
336.65 K | 375.13
338.15 K | 377.03
339.65 K | 378.93
341.15 K | 380.83
342.65 K | 382.74
344.15 K | 384.65
345.65 K | 386.56
347.15 K | 388.48
348.65 K | 390.4
350.15 K | 392.32
351.65 K | 394.24
353.15 K | 396.17

OCCCCCO [1,5-pentanediol]
Details | molar heat capacity at constant pressure [J/K/mol]
293.15 K | 229.04
294.65 K | 230.06
296.15 K | 231.1
297.65 K | 232.14
298.15 K | 232.49
299.15 K | 233.19
300.65 K | 234.25
302.15 K | 235.31
303.65 K | 236.39
305.15 K | 237.47
306.65 K | 238.56
308.15 K | 239.66
309.65 K | 240.77
311.15 K | 241.89
312.65 K | 243.01
314.15 K | 244.14
315.65 K | 245.28
317.15 K | 246.43
318.65 K | 247.59
320.15 K | 248.76
321.65 K | 249.93
323.15 K | 251.11
324.65 K | 252.3
326.15 K | 253.5
327.65 K | 254.7
329.15 K | 255.92
330.65 K | 257.14
332.15 K | 258.37
333.65 K | 259.61
335.15 K | 260.86
336.65 K | 262.11
338.15 K | 263.38
339.65 K | 264.65
341.15 K | 265.93
342.65 K | 267.22
344.15 K | 268.51
345.65 K | 269.82
347.15 K | 271.13
348.65 K | 272.45
350.15 K | 273.78
351.65 K | 275.12
353.15 K | 276.46

OCCCCO [1,4-butanediol]
Details | molar heat capacity at constant pressure [J/K/mol]
293.15 K | 200.51
294.65 K | 201.33
296.15 K | 202.16
297.65 K | 202.99
298.15 K | 203.27
299.15 K | 203.82
300.65 K | 204.67
302.15 K | 205.51
303.65 K | 206.36
305.15 K | 207.22
306.65 K | 208.08
308.15 K | 208.95
309.65 K | 209.82
311.15 K | 210.7
312.65 K | 211.58
314.15 K | 212.47
315.65 K | 213.36
317.15 K | 214.26
318.65 K | 215.17
320.15 K | 216.08
321.65 K | 216.99
323.15 K | 217.91
324.65 K | 218.83
326.15 K | 219.76
327.65 K | 220.7
329.15 K | 221.64
330.65 K | 222.58
332.15 K | 223.53
333.65 K | 224.49
335.15 K | 225.45
336.65 K | 226.41
338.15 K | 227.38
339.65 K | 228.36
341.15 K | 229.34
342.65 K | 230.33
344.15 K | 231.32
345.65 K | 232.32
347.15 K | 233.32
348.65 K | 234.32
350.15 K | 235.34
351.65 K | 236.35
353.15 K | 237.38

OCCO [1,2-ethanediol]
Details | molar heat capacity at constant pressure [J/K/mol]
293.15 K | 148.1
294.65 K | 148.57
296.15 K | 149.05
297.65 K | 149.53
298.15 K | 149.69
299.15 K | 150.01
300.65 K | 150.48
302.15 K | 150.96
303.65 K | 151.44
305.15 K | 151.92
306.65 K | 152.4
308.15 K | 152.88
309.65 K | 153.36
311.15 K | 153.83
312.65 K | 154.31
314.15 K | 154.79
315.65 K | 155.27
317.15 K | 155.75
318.65 K | 156.23
320.15 K | 156.71
321.65 K | 157.19
323.15 K | 157.67
324.65 K | 158.15
326.15 K | 158.63
327.65 K | 159.11
329.15 K | 159.6
330.65 K | 160.08
332.15 K | 160.56
333.65 K | 161.04
335.15 K | 161.52
336.65 K | 162
338.15 K | 162.49
339.65 K | 162.97
341.15 K | 163.45
342.65 K | 163.93
344.15 K | 164.42
345.65 K | 164.9
347.15 K | 165.38
348.65 K | 165.86
350.15 K | 166.35
351.65 K | 166.83
353.15 K | 167.32

OCCCCCCO [1,6-hexanediol]
Details | molar heat capacity at constant pressure [J/K/mol]
318.65 K | 282.66
320.15 K | 284.25
321.65 K | 285.84
323.15 K | 287.42
324.65 K | 288.99
326.15 K | 290.55
327.65 K | 292.12
329.15 K | 293.67
330.65 K | 295.22
332.15 K | 296.76
333.65 K | 298.3
335.15 K | 299.83
336.65 K | 301.36
338.15 K | 302.88
339.65 K | 304.4
341.15 K | 305.91
342.65 K | 307.41
344.15 K | 308.91
345.65 K | 310.4
347.15 K | 311.88
348.65 K | 313.36
350.15 K | 314.84
351.65 K | 316.31
353.15 K | 317.77

OCCCO [propan-1,3-diol]
Details | molar heat capacity at constant pressure [J/K/mol]
293.15 K | 173.4
294.65 K | 174.11
296.15 K | 174.83
297.65 K | 175.54
298.15 K | 175.78
299.15 K | 176.26
300.65 K | 176.98
302.15 K | 177.7
303.65 K | 178.42
305.15 K | 179.15
306.65 K | 179.87
308.15 K | 180.59
309.65 K | 181.32
311.15 K | 182.05
312.65 K | 182.78
314.15 K | 183.51
315.65 K | 184.24
317.15 K | 184.97
318.65 K | 185.7
320.15 K | 186.44
321.65 K | 187.17
323.15 K | 187.91
324.65 K | 188.65
326.15 K | 189.38
327.65 K | 190.12
329.15 K | 190.87
330.65 K | 191.61
332.15 K | 192.35
333.65 K | 193.1
335.15 K | 193.84
336.65 K | 194.59
338.15 K | 195.34
339.65 K | 196.09
341.15 K | 196.84
342.65 K | 197.59
344.15 K | 198.34
345.65 K | 199.1
347.15 K | 199.85
348.65 K | 200.61
350.15 K | 201.37
351.65 K | 202.13
353.15 K | 202.89
